One data set concerns HCC1937+BRCA1. The experiment in a line: Microarray gene ontology enrichment, HCC1937+BRCA1. The class given is cell-based, human. The settings on record: genes downregulated, HCC1937 + BRCA1-COH29 vs HCC1937 + BRCA1. Here is the method: FDR values were calculated using the method of Benjamini and Hochberg (28) from the distribution of ANOVA with Linear Contrastp-values. Gene ontology (GO) (29) enrichment analysis was performed within PARTEK® GENOMICS SUITE™, and GO categories were defined significant with a Fisher Exact test p-value<0.05.
To identify the mechanism through which COH29 preferentially lyses BRCA1-mutant human cancer cells, genome-wide microarray analysis was performed using the AFFYMETRIX® GENECHIP® microarray platform to identify the gene expression profiles and pathways affected by COH29 treatment. The RNA expression profile of COH29 treated HCC1937 breast cancer cells lacking BRCA1 was compared with that of COH29 treated HCC1937+BRCA1 cells. […] For example, DNA ligation involved in DNA repair is more strongly enriched in HCC1937 cells which may relate to the phenotypic effect.

Data set [1] concerns wild-type zebrafish embryos. The experiment in a line: Zebrafish genotoxicity assay. The following applies: embryos treated 1 to 7 dpf, COH29 0-100 μM. The class given is in vivo, Danio rerio. The procedure:
The PARP1 activity was determined using the PARP1 Chemiluminescent Assay Kit (BPS Bioscience, San Diego) according to the manufacturer's protocol. Briefly, the ribosylation reaction was carried out with activated DNA in PARP assay buffer using test inhibitor, positive control, substrate control and blank reactions, for 1 hour at 25° C. Detection was by streptavidin-HRP with chemiluminescent substrate A and B read in a luminometer. NZebrafish (Danio rerio) were obtained from zebrafish Core facility of Taipei Medical University and maintained at 28° C. on a 14 h light/10 h dark cycle. Embryos were incubated at 28° C. and different developmental stages were determined as described (25). Wild-type embryos were treated with different concentrations of HU (0, 5, 10, 20, 50 mM) or COH29 (0, 10, 20, 50, 100 μM) at 20 hpf to evaluate the mutagenic effect. Fifteen embryos were treated per well condition. […] Embryos were observed using an Olympus IX70-FLA inverted fluorescence microscope. Images were taken using SPOT digital camera system (Diagnostic Instruments, Sterling Heights, Mich., USA) and assembled with Image) software (26).
To assess the genotoxicity of COH29, wild-type zebrafish embryos were treated from 1 to 7 dpf (day post-fertilization) with a range of doses of COH29 (0-100 μM) and compared to embryos similarly treated with HU (0-50 mM) which is known to cause developmental defects.

The next data set addresses T1, ribonucleotide reductase (Homo sapiens, UniProt P31350).
T1 construct: from tissue; host or cells: MOLT-4 subcutaneous tumour xenografts from mice dosed orally with COH29
The experiment in a line: RNR activity and dNTP pools in MOLT-4 tumor xenografts. Format: in vivo, mouse. The following applies: MOLT-4 xenografts. Here is the method:
(§1) FIGS. 12A-12D depict the activity of COH29 in mouse xenografts. Cancer cells were implanted and allowed to grow at the subcutaneous site until the tumor was measurable. Subcutaneous xenograft growth curves for leukemic-(MOLT-4) mice treated for 12 days with oral COH29 in twice-daily dosing at 50 and 100 mg/kg (FIG. 12A) and for ovarian cancer bearing mice (TOV112D) treated for 7 days with 200, 300, or 400 mg/kg of oral COH29 (FIG. 12B) (shown are the average±SDs for 4 animals/group). FIG. 12C depicts the activity of RNR in MOLT-4 tumor xenografts from mice treated with vehicle (solutol-15) or 100 mg/kg of oral COH29 for 12 days. FIG. 12D depicts the effect of oral COH29 on intratumoral dTNP pools from MOLT-4 tumor xenografts.

Data set [2] is described as follows: First-in-human Phase I dose escalation safety study. The class given is in vivo. An excerpt:
First-in-human Phase I, single site, dose escalation, safety study.
Inclusion Criteria: (1) Male and female patients≥18 years of age with advanced, histologically confirmed solid tumors refractory to standard therapy or for which no standard therapy exists; (2) Patients must have measurable or evaluable disease; (3) Patients may be entered if they have received prior radiation therapy involving ≤30% of the bone marrow; (4) Patients may be enrolled with a history of treated brain metastases that are clinically stable for ≥4 weeks prior to enrollment; (5) ECOG Performance Status of ≤2; (6) Life expectancy of greater than 12 weeks as determined by treating clinician assessment; and (7) Adequate organ function per standard laboratory assessments.
Exclusion Criteria: (1) Patients must not have received prior chemotherapy or radiation for ≥4 weeks before study treatment initiation; (2) Patients unable or unwilling to swallow pill; (3) Active heart disease including myocardial infarction within previous 3 months, symptomatic coronary artery disease or heart block, or uncontrolled congestive heart failure; and (4) Women who are pregnant or actively breast-feeding.
Intrapatient dose escalation is allowed and design reverts to standard 3+3 if 2 moderate toxicities or 1 dose limiting toxicity (DLT) is encountered.
With respect to the DLT definition, Grade≥3 non-hematological toxicity will be considered dose limiting with the following clarifications: Grade 3 diarrhea will only be considered dose limiting if it is refractory to treatment and unable to be corrected to grade 1 or less within 24 hours. Bloody or grade 4 diarrhea will be dose limiting; Grade 3 nausea and vomiting will only be considered dose limiting if it is refractory to anti-emetic therapy and unable to be corrected to grade 1 or less within 24 hours; Grade 3 rise in creatinine, not corrected to grade 1 or less within 24 hours with IV fluids will be considered dose limiting. All grade 4 rises in creatinine will be dose limiting; and Grade 3 electrolyte toxicities unable to be corrected to grade 1 or baseline within 24 hours will be considered dose limiting. Tumor pain will not be considered dose limiting unless it is refractory to optimal treatment with analgesics. With respect to Grade 4, the following will be considered: Grade 4 thrombocytopenia; Grade 4 neutropenia lasting ≥5 days or febrile neutropenia; Grade 4 hemolysis; Treatment delay>2 weeks as a result of unresolved toxicity; and any degree of anemia, leucopenia in the absence of grade 4 neutropenia lasting ≥5 days, or lymphopenia will not be considered dose limiting.
Patients receive oral COH29 twice a day for 21 days of a 28-day cycle. Dose levels range from 200 to 2400 mg per day of administration. Dose escalation is pursued utilizing a Simon's accelerated titration design, which allows skipping of dose levels (dose doubling) during the accelerated dose-finding phase. PD assessment includes measurement of plasma CK18 levels to determine degree of cellular apoptosis, evaluation of dNTP pool levels in peripheral blood mononuclear cells (PBMCs) to evaluate RNR inhibition, as well as measurement of PAR expression in PBMCs to assess PARP inhibition. Quantitation of tumor RRM2 expression using dual-color immunohistochemistry is explored as a predictive biomarker of anti-tumor response to COH29.

For the next data set, the system named is MOLT-4 xenograft tumors. The experiment in a line: MOLT-4 mouse xenograft. The class given is in vivo. The settings on record: MOLT-4, oral twice daily 50 and 100 mg/kg, 12 days. The procedure: as §1

T1 sequence (P31350 whole entry): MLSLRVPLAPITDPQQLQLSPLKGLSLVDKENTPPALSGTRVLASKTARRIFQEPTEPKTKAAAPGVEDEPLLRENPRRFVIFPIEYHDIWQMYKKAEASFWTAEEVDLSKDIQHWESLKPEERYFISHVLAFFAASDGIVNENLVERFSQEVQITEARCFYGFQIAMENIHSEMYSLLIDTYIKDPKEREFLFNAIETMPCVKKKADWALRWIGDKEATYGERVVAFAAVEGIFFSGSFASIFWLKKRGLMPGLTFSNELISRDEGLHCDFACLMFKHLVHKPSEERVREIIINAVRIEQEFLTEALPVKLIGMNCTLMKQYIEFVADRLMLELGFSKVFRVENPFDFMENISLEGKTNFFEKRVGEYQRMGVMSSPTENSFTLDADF

With `O=C(Nc1nc(-c2ccc(O)c(O)c2)c(-c2ccccc2)s1)c1ccc(O)c(O)c1` [COH29, N-(4-(3,4-dihydroxyphenyl)-5-phenylthiazol-2-yl)-3,4-dihydroxybenzamide], in the data set on HCC1937+BRCA1, the “Genes (n): DNA ligation involved in DNA repair” value is 3, the “Genes (n): DNA repair” value was found to be 44, the “Genes (n): DSB repair” value was 14 and the “Genes (n): DSB repair via HR” value is 9. Further, in the data set with HCC1937+BRCA1, the “Genes (n): DSB repair via NHEJ” value came out at 3. The viability of embryos entry in data set [1] is given as “no developmental defects (FIG. 5C) or decrease in viability”. The developmental defects entry in data set [1] (HU 0-50 mM) is given as “no developmental defects”. In addition, the “tumor ribonucleotide reductase activity” value at ribonucleotide reductase (100 mg/kg oral, 12 days) was “reduced”. Besides, on ribonucleotide reductase (oral COH29), the “intratumoral dNTF pools” value is on record as “decrease”. Further, the “realtime PK monitoring vs AUC safety threshold” value in data set [2] (every patient, cycle 1) is listed as “no exceeding of AUC safety threshold”. Also, the “toxicity / DLT” value in data set [2] (first patient, dose level 1, 100 mg twice a day) was “without any DLT”. Also, in data set [2] (fourth patient, dose level 7, 800 mg twice a day), the “toxicity / DLT” value is on record as “moderate toxicity of grade 2 diarrhea”. The “toxicity / DLT” value in data set [2] (second patient, dose level 3, 200 mg twice a day) is on record as “moderate toxicity of grade 2 skin rash”. Moreover, in data set [2] (third patient, dose level 5, 400 mg twice a day), the “toxicity / DLT” value is “without any DLT”. Further, the xenograft tumor growth entry with MOLT-4 xenograft tumors is recorded as “inhibited”.
